What is called IC50 is the point on the concentration scale where inhibition reaches its midpoint.

For the assay, the target named is T1, Diacylglycerol O-acyltransferase 2 (Homo sapiens, UniProt Q96PD7).
T1 sequence (Q96PD7 whole entry): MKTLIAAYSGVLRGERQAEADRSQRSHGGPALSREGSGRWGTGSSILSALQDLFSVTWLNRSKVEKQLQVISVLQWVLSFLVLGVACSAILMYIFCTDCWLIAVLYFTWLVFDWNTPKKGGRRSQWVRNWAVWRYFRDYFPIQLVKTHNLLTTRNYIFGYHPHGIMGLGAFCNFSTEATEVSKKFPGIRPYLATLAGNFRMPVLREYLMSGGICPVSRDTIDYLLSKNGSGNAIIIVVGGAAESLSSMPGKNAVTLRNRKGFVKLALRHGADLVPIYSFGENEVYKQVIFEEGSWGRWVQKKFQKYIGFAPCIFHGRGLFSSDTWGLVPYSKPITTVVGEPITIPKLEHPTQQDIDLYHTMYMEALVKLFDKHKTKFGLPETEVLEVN
Description: Enzymatic Activity Assay: DGAT2 activity was determined by measuring the amount of enzymatic product triolein (1,2,3-Tri(cis-9-octadecenoyl)glycerol) using the membrane prep mentioned above. The assay was carried out in deep well 384 plates in a final volume of 40 μL at room temperature. The assay mixture contained the following: assay buffer (100 mM Tris.Cl, pH 7.0, 20 mM MgCl2, 5% ethanol), 25 μM of diolein, 10 μM of oleoyl-CoA and 10 ng/μL of DGAT2 membrane.
With `Cc1noc([C@@H]2C[C@H]2C(=O)NCc2ccc(-c3cncc(C(C)(C)O)c3)c3c2CN(C(=O)NC(C)(C)C)CC3)n1` (relative stereo), the concentration for half-maximal inhibition (IC50) amounted to 512 nM.

Regarding `COC(=O)c1cccc(-c2ccc(CNC(=O)C3CC3c3ccccc3)c3c2CCN(C(=O)c2ccccn2)C3)c1` (mixture of isomers), the concentration for half-maximal inhibition (IC50) came out at 249 nM.

In the case of `COc1cccc(-c2ccc(CNC(=O)[C@H]3C[C@@H]3c3nc(C)no3)c3c2CCN(C(=O)C(C)(C)O)C3)c1` (relative stereo), the half-maximal inhibitory concentration (IC50) turned out to be 723 nM.

Regarding `COC(=O)c1cccc(-c2ccc(CNC(=O)C3CC3c3ccccc3)c3c2CCN(Cc2ccncc2)C3)c1` (mixture of isomers), the IC50 came out at 2410 nM.

For the molecule `Cc1noc([C@H]2C[C@@H]2C(=O)NCc2ccc(-c3cccc(C(F)(F)F)c3)c3c2CN(C(=O)NC(C)(C)C)CC3)n1` (relative stereo), the concentration for half-maximal inhibition (IC50) was found to be 5.8 nM.

As to `COC(=O)c1cccc(-c2ccc(CNC(=O)C3CC3c3ccccc3)c3c2CCN(Cc2cc(C)n(C4CC4)c2C)C3)c1` (mixture of isomers), the IC50 came out at 2800 nM.

Turning to `COc1cccc(-c2ccc(CNC(=O)[C@@H]3C[C@H]3c3ccccc3)c3c2CCN(C(=O)NC(C)C(C)C)C3)c1` (mixture of isomers), the 50% inhibitory concentration (IC50) came to 23.8 nM.

As to `COc1cccc(-c2ccc(CNC(=O)[C@@H]3C[C@H]3c3ccccc3)c3c2CCN(C(=O)NC2CC2)C3)c1` (mixture of isomers), the half-maximal inhibitory concentration (IC50) is 22.6 nM.

Consider `CCCNC(=O)N1CCc2c(-c3cccc(OC)c3)ccc(CNC(=O)[C@@H]3C[C@H]3c3nc(C)no3)c2C1` (relative stereo), for which the IC50 is 8.3 nM.

As for `CCCCC(CC)CNC(=O)N1CCc2c(-c3cccc(OC)c3)ccc(CNC(=O)[C@@H]3C[C@H]3c3ccccc3)c2C1` (relative stereo), the half-inhibitory concentration (IC50) is 249 nM.

The values above are taken from ChEMBL document CHEMBL5727596, “Tetrahydroisoquinoline derivatives useful as inhibitors of diacylglyceride O-acyltransferase 2” (2020).
